This passage reports IC50 results from patent US7723538B2, “Sulfonamides as L-CPT1 inhibitors” (Hoffmann-La Roche Inc., priority 2005, dated 2010).

The experiment concerns the target T1, L-CPT1 (Homo sapiens, UniProt P50416).
T1 construct: made in house; host or cells: Pichia pastoris strain X-33 (pGAPZB/pGAPZA vector), crude cell-free extract
T1 sequence (P50416 1-773): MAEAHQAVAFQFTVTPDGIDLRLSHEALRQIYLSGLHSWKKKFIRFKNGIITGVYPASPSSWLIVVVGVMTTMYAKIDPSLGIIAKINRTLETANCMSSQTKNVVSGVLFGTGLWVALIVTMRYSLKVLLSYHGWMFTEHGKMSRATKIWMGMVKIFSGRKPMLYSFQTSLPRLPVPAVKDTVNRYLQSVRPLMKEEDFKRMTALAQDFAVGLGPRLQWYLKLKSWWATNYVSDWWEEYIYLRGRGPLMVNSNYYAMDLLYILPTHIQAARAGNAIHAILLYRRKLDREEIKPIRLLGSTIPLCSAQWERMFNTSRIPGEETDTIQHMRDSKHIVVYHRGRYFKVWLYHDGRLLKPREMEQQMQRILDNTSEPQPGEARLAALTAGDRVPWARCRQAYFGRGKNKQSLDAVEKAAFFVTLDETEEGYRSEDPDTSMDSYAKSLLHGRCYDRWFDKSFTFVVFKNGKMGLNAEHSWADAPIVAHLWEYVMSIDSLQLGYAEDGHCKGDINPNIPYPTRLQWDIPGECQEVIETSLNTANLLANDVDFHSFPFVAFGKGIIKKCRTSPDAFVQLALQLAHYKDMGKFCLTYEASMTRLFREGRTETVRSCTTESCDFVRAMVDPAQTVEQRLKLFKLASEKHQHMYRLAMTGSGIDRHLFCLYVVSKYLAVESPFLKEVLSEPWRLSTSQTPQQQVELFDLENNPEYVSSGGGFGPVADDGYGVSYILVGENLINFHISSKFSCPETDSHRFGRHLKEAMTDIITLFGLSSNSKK
Briefly: CPT activity spectrophotometric assay with DTNB (Ellman's reagent), cell-free extracts of P. pastoris expressing CPT1. Conditions: carnitine 500 μM, palmitoyl-CoA 80 μM, DTNB 300 μM, absorbance at 410 nm, pH 7.4; read-out: L-CPT1 inhibition IC50. Format: biochemical. The method, then:
The following tests were carried out in order to determine the activity of the compounds of the present invention. Background information on the performed assays can be found in: Jackson et al., 1999, Biochem. J. 341, 483-489 and Jackson et al., 2000, J. Biol. Chem. 275, 19560-19566.
Human liver and muscle CPT1 cDNAs and rat CPT2 cDNA were subcloned in pGAPZB or pGAPZA, respectively. These plasmids were used to transform P. pastoris strain X-33 via electroporation after the preparation of electrocompetent cells. High copy number clones were selected where necessary using 0.5 or 1 mg/ml Zeocin. Cultures for activity measurements were induced for 16 h in YPD medium (1% yeast extract, 2% peptone, 2% glucose). Crude cell extracts were prepared by disrupting the cells with glass beads or French Press, depending on fermenter sizes. After centrifugation, the cell-free extracts were resuspended in cell breaking buffer (50 mM Tris, pH 7.4, 100 mM KCl, 1 mM EDTA) in the presence of a protease inhibitor cocktail, before aliquoting and freezing at −20° C.
CPT activity was measured using a spectrophotometric assay using 5,5′-dithio-bis-(2-nitrobenzoic acid) (DTNB) also called Ellman's reagent. The HS-CoA released on the formation of acylcarnitine from carnitine (500 μM) and palmitoyl-CoA (80 μM) reduced DTNB (300 μM) forming 5-mercapto-(2-nitrobenzoic acid) witch absorbed at 410 nm with a molar coefficient extinction of 13600 M^−1·cm^−1. The assay buffer contained 120 mM KCl, 25 mM Tris, pH 7.4, 1 mM EDTA. This assay was used for the identification of selective inhibitors of the liver CPT1 isoform versus the muscle CPT1 and CPT2 isoforms.
In general terms: In Ellman's method for cholinesterases, released thiocholine reacts with DTNB.

Regarding `O=C(O)c1ccc(NC(=O)c2cccc(NS(=O)(=O)c3ccc(Cl)c(Cl)c3)c2)cc1` [Example 5, 4-[3-(3,4-Dichloro-benzenesulfonylamino)-benzoylamino]-benzoic acid], the IC50 came to 192 nM. For the compound `O=C(O)c1ccc(NC(=O)c2ccc(Cl)c(NS(=O)(=O)c3cccc(Cl)c3)c2)cc1` [Example 21, 4-[4-Chloro-3-(3-chloro-benzenesulfonylamino)-benzoylamino]-benzoic acid], the IC50 came out at 153 nM. The same measure for `COc1cc(C(=O)Nc2ccc(C(=O)O)cc2)cc(NS(=O)(=O)c2cc(Cl)cc(Cl)c2)c1OC` [Example 32, 4-[3-(3,5-Dichloro-benzenesulfonylamino)-4,5-dimethoxy-benzoylamino]-benzoic acid]: 881 nM.

As a reminder, the IC50 is the point on the concentration scale where inhibition reaches its midpoint.
